Data: patent US20260364184A1, “COMPOUND BASED ON OXOISOINDOLINYL-SUBSTITUTED TETRAHYDROPYRIMIDINE-DIONE AND USE THEREOF” (GLUETACS THERAPEUTICS (SHANGHAI) CO., LTD., priority 2023, published 2026)
Like-named read-outs stand apart in the source and are kept apart here.

Experiments:
[1] = system: Human Acute T Lymphoblastic Leukemia Cells (Molt-4); assay: Inhibition of Molt-4 cell proliferation (CellTiter luminescent viability); type: cell-based; details: for Inhibition Rate at 10 nM (%) / Inhibition Rate at 500 nM (%): Molt-4; for inhibition at 0.01 µM / inhibition at 0.5 µM: Homo sapiens, MOLT-4, Molt-4; for Inhibition Rate at 10 nM (%) / inhibition at 0.01 µM: 10 nM; for inhibition at 0.01 µM: read-out: Inhibition Rate at 10 nM (%); for Inhibition Rate at 500 nM (%) / inhibition at 0.5 µM: 500 nM; for inhibition at 0.5 µM: read-out: Inhibition Rate at 500 nM (%)
[2] = system: Human myeloid monocytic leukemia cell line (MV-4-11); assay: Inhibition of MV-4-11 cell proliferation (CellTiter luminescent viability); type: cell-based; details: for inhibition at 0.01 µM / inhibition at 0.5 µM: Homo sapiens, MV4-11; for inhibition at 0.01 µM: read-out: Inhibition Rate at 10 nM (%); for inhibition at 0.5 µM: read-out: Inhibition Rate at 500 nM (%)
In short: (§1)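 Cells are seeded in 96-well plates, cultured at 37 °C, 5% CO2, and treated next day with 5-fold serial compound dilutions (stock series from 2000 μM; 0.5 μL into 100 μL medium). Viability is read by CellTiter-Meiluncell luminescence after the set exposure, and IC50 is taken from growth-inhibition curves.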

[3] = system: Human diffuse large B-cell lymphoma cell line (WSU-DLCL2); assay: Inhibition of WSU-DLCL2 cell proliferation (CellTiter luminescent viability); type: cell-based; details: for inhibition at 0.01 µM / inhibition at 0.5 µM: Homo sapiens; for inhibition at 0.01 µM: WSUDLCL2, 10 nM, read-out: Inhibition Rate at 10 nM (%); for inhibition at 0.5 µM: WSUDLCL2, 500 nM, read-out: Inhibition Rate at 500 nM (%)
Procedure: (§2) The tumor cells used herein were cultured in a cell culture medium listed in table 3 at 37 °C in an incubator with 5% CO2. Prior to experimentation, all cell lines used were correctly identified by STR profiling, and tested negative for mycoplasma contamination using a mycoplasma detection kit through routine screenings.
(§3) The IC50 values of the compounds of the present disclosure (including the compounds in Table 1, Table 2, and Examples 1-468) were determined using the CellTiter-Meiluncell Luminescent Cell Viability Assay Kit from Dalian Meilun Biotech Co., Ltd. The detailed procedure is as follows: Tumor cells were seeded in 96-well cell culture plates at the densities specified in Table 4. On the following day, the test compounds of the present disclosure were subjected to serial dilution. The dilution can be performed according to one of the following two methods: • (1) The first dilution method: The test compounds of the present disclosure (including the compounds in Table 1, Table 2, and Examples 1-468) were subjected to 5-fold serial dilutions starting from a highest concentration of 2000 μM, resulting in a total of 9 concentrations from high to low (2000, 400, 80, 16, 3.2, 0.64, 0.128, 0.0256, 0.00512 μM). Subsequently, 0.5 μL of the test compound dilution was transferred into the 96-well plate containing the cells, with each well containing 100 μL of cell culture medium. […] Into the 96-well plate, the diluted test compounds and corresponding detection reagents were added, resulting in final test compound concentrations of 500 nM and 10 nM, respectively. The experimental procedure is described below using the diluted 2 μM test compound as an example.
(§4) 0.5 μL of the aforementioned diluted compound of the present disclosure (including the compounds in Table 1, Table 2, and Examples 1-468) was added to the seeded cells in 100 μL of medium, yielding a final test compound concentration of 10 nM. After the cells were treated with the compounds of the present disclosure for a specified period, the cell viability assay reagent was added to the culture medium according to the kit's instructions to determine cell viability. […] All controls were treated using the same procedure as the compounds of the present disclosure. The growth inhibition curves for the compounds of the present disclosure were plotted using Prism GraphPad software, and the IC50 values were calculated therefrom.

[4] = target: T1, human Cereblon WT GST-tagged protein (CRBN) (Homo sapiens, UniProt Q96SW2); assay: CRBN binding by HTRF (Cereblon binding kit)
T1 construct: purchased CISBIO 64BDCRBNPEH
In short: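 GST-tagged human Cereblon WT was incubated 3 h at room temperature with compound, thalidomide-Re tracer and Eu anti-GST antibody. Final compound concentrations were 10 to 0.00064 µM (7 points) or 2 and 0.5 µM. Inhibition rate was calculated from HTRF 665/620 nm ratios versus solvent and blank controls.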

[5] = system: Human non-small cell lung cancer cell line NCI-H2228; assay: Inhibition of H2228 cell proliferation (CellTiter luminescent viability); details: Table IB2, ALK inhibitor-based, 96 hours
Procedure: as §2, §3, §4

[6] = system: Human large cell immunoblastic lymphoma cell line SR; assay: Inhibition of SR cell proliferation (CellTiter luminescent viability); type: cell-based; details: 96 hours
In short: as §1

T1 sequence (Q96SW2 whole entry): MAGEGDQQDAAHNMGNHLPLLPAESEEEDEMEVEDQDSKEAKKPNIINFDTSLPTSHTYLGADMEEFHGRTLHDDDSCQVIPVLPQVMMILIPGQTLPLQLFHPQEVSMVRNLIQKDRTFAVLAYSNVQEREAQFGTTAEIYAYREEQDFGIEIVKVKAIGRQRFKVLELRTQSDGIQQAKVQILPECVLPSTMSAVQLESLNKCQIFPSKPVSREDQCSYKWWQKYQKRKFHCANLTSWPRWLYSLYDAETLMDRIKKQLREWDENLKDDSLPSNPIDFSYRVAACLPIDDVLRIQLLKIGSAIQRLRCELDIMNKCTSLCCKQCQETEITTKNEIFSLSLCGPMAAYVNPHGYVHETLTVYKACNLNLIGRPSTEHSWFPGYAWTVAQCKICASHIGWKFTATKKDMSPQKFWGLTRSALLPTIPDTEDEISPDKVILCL

SMILES: CC(C)CCN1c2nc(Nc3cc(F)c(O)c(F)c3)ncc2N(C)C(=O)C1C (stereo not drawn) [BI-D1870, reference compound]
- Inhibition Rate at 10 nM (%) ([1]; Table IN2): INb2 (−15% < INb2 < −5%)
- Inhibition Rate at 10 nM (%) ([1]; Table IN3): INc1 (0% < INcl < 5%)
- Inhibition Rate at 500 nM (%) ([1]; Table IN2): INb5 (5% ≤ INb5 < 10%)
- Inhibition Rate at 500 nM (%) ([1]; Table IN3): INc3 (10% ≤ INc3 < 15%)
- Inhibition Rate at 10 nM (%) ([2]; MV-4-11, 10 nM): INa3 (−5% ≤ INa3 ≤ 0%)
- Inhibition Rate at 500 nM (%) ([2]; MV-4-11, 500 nM): INa7 (20% ≤ INa7 < 30%)
- Inhibition Rate at 10 nM (%) ([3]; 10 nM): INd1 (0% < INd1 < 5%)
- Inhibition Rate at 500 nM (%) ([3]; 500 nM): INd5 (20% ≤ INd5 < 30%)

SMILES: C[C@@H]1CNC(=O)c2cc3ccc(C(=O)Nc4cnn(Cc5ccc(N6CCN(Cc7ccc8c(c7)CN(N7CCC(=O)NC7=O)C8=O)CC6)cc5)c4)nc3n21 [GT-08149, (R)—N-(1-(4-(4-((2-(2,4-dioxotetrahydropyrimidin-1(2H)-yl)-1-oxoisoindolin-5-yl)methyl)piperazin-1-yl)benzyl)-1H-pyrazol-4-yl)-9-methyl-6-oxo-6,7,8,9-tetrahydropyrido[3′,2′: 4,5]pyrrolo[1,2-a]pyrazine-2-carboxamide]
- inhibition at 0.01 µM ([1]; Table IN2): -5 to 0%
- inhibition at 0.5 µM ([1]; Table IN2): 30 to 50%
- inhibition at 0.01 µM ([2]; MV-4-11, 10 nM): 5 to 10%
- inhibition at 0.5 µM ([2]; MV-4-11, 500 nM): 70 to 80%
- inhibition at 0.5 µM ([4]; 0.5 μM, read-out: Inhibition Rate at 0.5 μM (%)): 20 to 30%
- inhibition at 2 µM ([4]; 2 μM, read-out: Inhibition Rate at 2 μM (%)): 53 to 60%
- inhibition at 0.01 µM [3]: 5 to 10%
- inhibition at 0.5 µM [3]: 40 to 50%

SMILES: C[C@@H]1CNC(=O)c2cc3ccc(C(=O)Nc4cnn(Cc5ccc(N6CCC(N7CCN(Cc8ccc9c(c8)CN(N8CCC(=O)NC8=O)C9=O)CC7)CC6)cc5)c4)nc3n21 [GT-08151, (R)—N-(1-(4-(4-(4-((2-(2,4-dioxotetrahydropyrimidin-1(2H)-yl)-1-oxoisoindolin-5-yl)methyl)piperazin-1-yl)piperidin-1-yl)benzyl)-1H-pyrazol-4-yl)-9-methyl-6-oxo-6,7,8,9-tetrahydropyrido[3′,2′: 4,5]pyrrolo[1,2-a]pyrazine-2-carboxamide]
- inhibition at 0.01 µM ([1]; Table IN2): 0 to 5%
- inhibition at 0.01 µM ([1]; Table IN3): 20 to 30%
- inhibition at 0.5 µM ([1]; Table IN2): 30 to 50%
- inhibition at 0.5 µM ([1]; Table IN3): 10 to 15%
- inhibition at 0.01 µM ([2]; MV-4-11, 10 nM): 5 to 10%
- inhibition at 0.5 µM ([2]; MV-4-11, 500 nM): 80 to 100%
- inhibition at 0.01 µM [3]: 10 to 15%
- inhibition at 0.5 µM [3]: 50 to 60%

SMILES: CCc1cc2c(cc1N1CCC(N3CCOCC3)CC1)C(C)(C)c1[nH]c3cc(C#N)ccc3c1C2=O [alectinib, Alectinib, reference compound]
- inhibition at 0.01 µM ([5]; H2228, 10 nM, read-out: Inhibition Rate at 10 nM (%)): 5 to 10%
- inhibition at 0.5 µM ([5]; H2228, 500 nM, read-out: Inhibition Rate at 500 nM (%)): 20 to 30%
- inhibition at 0.01 µM ([2]; Table IB2, ALK inhibitor-based, MV-4-11, 10 nM, 96 hours): 5 to 10%
- inhibition at 0.5 µM ([2]; Table IB2, ALK inhibitor-based, MV-4-11, 500 nM, 96 hours): 30 to 45%
- Inhibition Rate at 0.5 μM (%) ([4]; 0.5 μM): a (0% < a ≤ 10%)
- Inhibition Rate at 2 μM (%) ([4]; 2 μM): a (0% < a ≤ 10%)
- IC50 ([6]; Table IB1, ALK inhibitor-based, read-out: Inhibitory activity (IC50, nM) on tumor cell proliferation, SR): 1000 to 5000 nM
- Inhibition Rate at 10 nM (%) ([6]; Table IB2, ALK inhibitor-based, 10 nM): IBa4 (15% ≤ IBa4 < 20%)
- Inhibition Rate at 500 nM (%) ([6]; Table IB2, ALK inhibitor-based, 500 nM): IBa10 (80% ≤ IBa10 < 90%)
